Data as given in PubChem BioAssay AID330 (DTP/NCI, 2004).
Several values for one entry are separate records, joined by “and”; a condition that tells them apart may be missing. Identical values can stand only once. Inconclusive results and toxic doses are left out. Rule for the calls: active = survival T/C of 150% or more; inactive = T/C below 125% in these data.

Tested on: P388 leukemia ip, CD2F1 mice, survival T/C
Assay: NCI In Vivo Anticancer Drug Screen. Data for tumor model P388 Leukemia (intraperitoneal) in CD2F1 (CDF1) mice
Settings: endpoint: median survival time, higher = longer survival
Summary of the method: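 Mice carrying the transplanted tumor received test compound or vehicle. Survival was recorded in each group, and the value is the treated-group measurement divided by that of the vehicle-treated control group.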

[1] = dose: 50.0 mg/kg/injection, schedule: Q01DX005 (ip), vehicle: saline
[2] = dose: 100.0 mg/kg/injection, schedule: Q01DX005 (ip), vehicle: saline
[3] = dose: 60.0 mg/kg/injection, schedule: Q01DX005 (ip), vehicle: saline with Tween-80
[4] = dose: 120.0 mg/kg/injection, schedule: Q01DX005 (ip), vehicle: saline with Tween-80
[5] = dose: 240.0 mg/kg/injection, schedule: Q01DX005 (ip), vehicle: saline with Tween-80
[6] = dose: 200.0 mg/kg/injection, schedule: Q04DX003 (ip), vehicle: saline with Tween-80
[7] = dose: 50.0 mg/kg/injection, schedule: Q01DX005 (ip), vehicle: Klucel (hydroxypropylcellulose) (HPC)
[8] = dose: 100.0 mg/kg/injection, schedule: Q01DX005 (ip), vehicle: Klucel (hydroxypropylcellulose) (HPC)
[9] = dose: 50.0 mg/kg/injection, schedule: Q01DX009 (ip), vehicle: saline
[10] = dose: 12.5 mg/kg/injection, schedule: Q01DX005 (ip), vehicle: saline with Tween-80
[11] = dose: 50.0 mg/kg/injection, schedule: Q01DX005 (ip), vehicle: saline with Tween-80
[12] = dose: 12.5 mg/kg/injection, schedule: Q01DX009 (ip), vehicle: distilled water + Tween-80
[13] = dose: 25.0 mg/kg/injection, schedule: Q01DX009 (ip), vehicle: distilled water + Tween-80
[14] = dose: 60.0 mg/kg/injection, schedule: Q01DX005 (ip), vehicle: Klucel (hydroxypropylcellulose) (HPC)
[15] = dose: 120.0 mg/kg/injection, schedule: Q01DX005 (ip), vehicle: Klucel (hydroxypropylcellulose) (HPC)
[16] = dose: 240.0 mg/kg/injection, schedule: Q01DX005 (ip), vehicle: Klucel (hydroxypropylcellulose) (HPC)
[17] = dose: 50.0 mg/kg/injection, schedule: Q01DX009 (ip), vehicle: Klucel (hydroxypropylcellulose) (HPC)
[18] = dose: 100.0 mg/kg/injection, schedule: Q01DX009 (ip), vehicle: Klucel (hydroxypropylcellulose) (HPC)

Measured: T/C

Cc1cc(N/N=C/c2ccc(N(CCCl)CCCl)cc2)c2cc3c(cc2n1)OCO3
inactive: dose: 25.0 mg/kg/injection, schedule: Q04DX003 (ip), vehicle: saline with Tween-80 111 % of control

C=C(C)C1CCC2(C1)C(C)=CCCC2C (stereo not drawn)
inactive: dose: 12.5 mg/kg/injection, schedule: Q01DX005 (ip), vehicle: saline 107 % of control | dose: 25.0 mg/kg/injection, schedule: Q01DX005 (ip), vehicle: saline 99 % of control | [1] 108 % of control | [2] 100 % of control | dose: 200.0 mg/kg/injection, schedule: Q01DX005 (ip), vehicle: saline 99 % of control

COC(=O)c1cc2c(cc1C(=O)OC)C(=O)c1ccccc1C2=O
inactive: [3] 100 % of control | [4] 101 % of control | [5] 92 % of control

C=C=C(COC(C)=O)ON1CCCCC1
inactive: [1] 111 % of control | [2] 111 % of control

S=c1nc[nH]c2c1ncn2C1C=CCCC1 (stereo not drawn)
inactive: dose: 100.0 mg/kg/injection, schedule: Q04DX003 (ip), vehicle: saline with Tween-80 90 % of control | dose: 176.0 mg/kg/injection, schedule: Q01DX009 (ip), vehicle: saline with Tween-80 100 % of control | [6] 90 % of control | dose: 264.0 mg/kg/injection, schedule: Q01DX009 (ip), vehicle: saline with Tween-80 95 % of control | dose: 400.0 mg/kg/injection, schedule: Q01DX009 (ip), vehicle: saline with Tween-80 118 % of control | dose: 400.0 mg/kg/injection, schedule: Q04DX003 (ip), vehicle: saline with Tween-80 90 % of control

COc1cc(NCCCNCC(C)(C)C)c2ncccc2c1
inactive: dose: 1.25 mg/kg/injection, schedule: Q01DX009 (ip), vehicle: Klucel (hydroxypropylcellulose) (HPC) 100 % of control | dose: 2.5 mg/kg/injection, schedule: Q01DX009 (ip), vehicle: Klucel (hydroxypropylcellulose) (HPC) 95 % of control | dose: 5.0 mg/kg/injection, schedule: Q01DX009 (ip), vehicle: Klucel (hydroxypropylcellulose) (HPC) 94 % of control | dose: 10.0 mg/kg/injection, schedule: Q01DX009 (ip), vehicle: Klucel (hydroxypropylcellulose) (HPC) 99 % of control

CCOC(=O)/C(C#N)=C/Nc1ccc(Cl)nc1Cl
inactive: [3] 89 % of control | [4] 86 % of control

C=CCSC(=S)Nc1nc2ccc([N+](=O)[O-])cc2s1
inactive: dose: 6.25 mg/kg/injection, schedule: Q01DX009 (ip), vehicle: Klucel (hydroxypropylcellulose) (HPC) 106 % of control | dose: 12.5 mg/kg/injection, schedule: Q01DX009 (ip), vehicle: Klucel (hydroxypropylcellulose) (HPC) 109 % of control | dose: 25.0 mg/kg/injection, schedule: Q01DX009 (ip), vehicle: Klucel (hydroxypropylcellulose) (HPC) 103 % of control

COc1cccc(/C=C/c2cc3c(cc2Br)OCO3)c1
inactive: [7] 102 % of control | [8] 108 % of control | dose: 200.0 mg/kg/injection, schedule: Q01DX005 (ip), vehicle: Klucel (hydroxypropylcellulose) (HPC) 101 % of control

C=C(CSc1ccc(C(=O)O)c([N+](=O)[O-])c1)c1ccc([N+](=O)[O-])cc1
inactive: dose: 12.5 mg/kg/injection, schedule: Q01DX009 (ip), vehicle: saline 105 % of control | dose: 25.0 mg/kg/injection, schedule: Q01DX009 (ip), vehicle: saline 106 % of control | [9] 99 % of control and 90 % of control

O=[N+]([O-])c1cccnc1Sc1nc2ccccc2[nH]1
inactive: [9] 96 % of control | dose: 100.0 mg/kg/injection, schedule: Q01DX009 (ip), vehicle: saline 101 % of control | dose: 200.0 mg/kg/injection, schedule: Q01DX009 (ip), vehicle: saline 101 % of control

O=C1CCOCCCOCCC(=O)OCCCOC(=O)CCOCCCOCCC(=O)OCCCO1
inactive: [7] 100 % of control | [8] 105 % of control

C/C(=N\NC(=S)N1CC2CCC(CC2)C1)c1cccc(C)n1
inactive: dose: 6.25 mg/kg/injection, schedule: Q01DX005 (ip), vehicle: saline with Tween-80 102 % of control and 114 % of control | [10] 112 % of control

Cc1ncc(CO)c(C2NCCS2)c1O (stereo not drawn)
inactive: [3] 100 % of control | [4] 107 % of control | [5] 107 % of control

O=C1c2ccccc2C(=O)c2c1ccc1ccccc21
inactive: [11] 99 % of control | dose: 100.0 mg/kg/injection, schedule: Q01DX005 (ip), vehicle: saline with Tween-80 89 % of control

O=[N+]([O-])c1cccc(N2CN(c3ccccc3)NC(c3ccccc3)=N2)c1
inactive: dose: 50.0 mg/kg/injection, schedule: Q04DX003 (ip), vehicle: saline with Tween-80 90 % of control | [6] 107 % of control

[O-]c1n[n+](-c2ccccc2)ns1
inactive: dose: 3.13 mg/kg/injection, schedule: Q01DX009 (ip), vehicle: distilled water + Tween-80 99 % of control and 106 % of control | dose: 6.25 mg/kg/injection, schedule: Q01DX009 (ip), vehicle: distilled water + Tween-80 99 % of control and 101 % of control and 114 % of control | [12] 100 % of control and 105 % of control and 124 % of control | [13] 99 % of control and 115 % of control and 92 % of control

CCOC(=O)C(/C=N/NS(=O)(=O)c1ccc(C)cc1)c1ccccc1 (stereo not drawn)
inactive: dose: 100.0 mg/kg/injection, schedule: Q04DX002 (ip), vehicle: saline 96 % of control | dose: 200.0 mg/kg/injection, schedule: Q04DX002 (ip), vehicle: saline 94 % of control | dose: 400.0 mg/kg/injection, schedule: Q04DX002 (ip), vehicle: saline 97 % of control

C/C(=C1\C(=O)Oc2c(ccc3ccccc23)C1=O)c1ccc2ccccc2c1O
inactive: [10] 99 % of control | dose: 25.0 mg/kg/injection, schedule: Q01DX005 (ip), vehicle: saline with Tween-80 99 % of control | [11] 86 % of control and 97 % of control

COC(=O)c1c(C)oc(C)c1-c1ccc(OCc2ccccc2)c(OC)c1
inactive: [14] 114 % of control | [15] 98 % of control | [16] 94 % of control

O=[N+]([O-])c1cc([N+](=O)[O-])c2ccc(S(=O)(=O)O)cc2c1O
inactive: dose: 12.5 mg/kg/injection, schedule: Q04DX002 (ip), vehicle: saline 100 % of control | dose: 15.0 mg/kg/injection, schedule: Q01DX005 (ip), vehicle: saline 105 % of control | dose: 30.0 mg/kg/injection, schedule: Q01DX005 (ip), vehicle: saline 99 % of control | dose: 50.0 mg/kg/injection, schedule: Q04DX002 (ip), vehicle: saline 93 % of control | dose: 60.0 mg/kg/injection, schedule: Q01DX005 (ip), vehicle: saline 100 % of control and 97 % of control | dose: 100.0 mg/kg/injection, schedule: Q01DX001 (ip), vehicle: saline with Tween-80 102 % of control | dose: 100.0 mg/kg/injection, schedule: Q04DX002 (ip), vehicle: saline with Tween-80 98 % of control | dose: 200.0 mg/kg/injection, schedule: Q01DX001 (ip), vehicle: saline with Tween-80 96 % of control

O=C1CN2C(=O)C1(c1ccccc1)C(=O)NC2=S (stereo not drawn)
inactive: dose: 100.0 mg/kg/injection, schedule: Q04DX002 (ip), vehicle: Klucel (hydroxypropylcellulose) (HPC) 105 % of control | dose: 200.0 mg/kg/injection, schedule: Q04DX002 (ip), vehicle: Klucel (hydroxypropylcellulose) (HPC) 106 % of control | dose: 400.0 mg/kg/injection, schedule: Q04DX002 (ip), vehicle: Klucel (hydroxypropylcellulose) (HPC) 106 % of control

Clc1cccc(Cl)c1NC1=NCCS1
inactive: [17] 92 % of control | [18] 101 % of control

CN1C(=O)C(Cc2cnc[nH]2)NC1=S (stereo not drawn)
inactive: [14] 101 % of control | [15] 111 % of control | [16] 93 % of control

COc1ccc(C2CCCCCC2)c(OC)c1OC
inactive: [17] 98 % of control and 108 % of control | [18] 113 % of control | dose: 200.0 mg/kg/injection, schedule: Q01DX009 (ip), vehicle: Klucel (hydroxypropylcellulose) (HPC) 103 % of control and 105 % of control

CCOC(=O)c1ccc(NN=NC(C)(C)C)cc1
inactive: [12] 91 % of control | [13] 93 % of control | dose: 50.0 mg/kg/injection, schedule: Q01DX009 (ip), vehicle: distilled water + Tween-80 86 % of control | dose: 100.0 mg/kg/injection, schedule: Q01DX009 (ip), vehicle: distilled water + Tween-80 93 % of control | dose: 200.0 mg/kg/injection, schedule: Q01DX009 (ip), vehicle: distilled water + Tween-80 86 % of control
